In patent US5508039A (priority 1994, dated 1996):

Experiments:
[1] = human, in vivo; cited from earlier work
[2] = system: intraocular pressure in glaucoma; details: cited from earlier work
[3] = clinical; format: in vivo, human
Method: (§1) Therapeutic blood levels from 20 pg/ml to 1,000 pg/ml can be obtained from administration rates in the range of […]. […] Therapeutic blood levels can be achieved within approximately 2 hours, and peak blood concentrations are achieved at about 4-6 hours when the system is worn for 4-6 hours. […] The system application is easily adapted for shorter or longer duration treatments, but generally 6 hours is the nominal duration for treatment of most insomnias.

[4] = system: mice; details: cited from earlier work
[5] = system: insomniacs; details: oral; cited from earlier work
[6] = system: breast cancer; details: cited from earlier work
[7] = general statement; cited from earlier work
[8] = system: desynchronized blind persons; details: oral; cited from earlier work
[9] = cited from earlier work
[10] = format: in vivo, human
Method: as §1

[11] = human, in vivo, topical or ocular

For COc1ccc2[nH]cc(CCNC(C)=O)c2c1 [melatonin, N-acetyl-5-methoxytryptamine], the metabolic clearance [1] is given as “approximately 1 liter per minute”, the “terminal plasma elimination half-life” value [1] is given as “approximately 45 minutes” and the volume of distribution [1] is given as “approximately 40 liters”. For the same molecule, the intraocular pressure [2] was “lower intraocular pressure in glaucoma”, the “desired and achievable system flux through the skin from a limited area” value [3] was 0,025-1.0 and the Tmax [3, 11] was 4 to 6 h. The half-life [3, 11] was 1 to 2 h, the “time to achieve therapeutic blood levels” value ([3]; in vivo) was no more than 2 h and the LD50 intraperitoneal ([4]; intraperitoneal) was 1375 mg/kg. The LD50 intravenous ([4]; intravenous) was 180 mg/kg, the “mood, drive, alertness, and reaction time the next day” value [5] was “improved” and the “time awake before sleep onset, sleep latency and number of awakenings” value [5] was “reduced the time awake before sleep onset and diminished sleep latency and number of awakenings”. For the same molecule, the “inhibition of breast cancer” value [6] was “inhibit breast cancer”, the toxicity [7] was “relatively non-toxic” and the “timing of sleep cycles” value [8] was “Improved timing of sleep cycles”. For the same molecule, the “absorption through the gastrointestinal tract” value ([9]; in vivo, po) was “readily absorbed”, the “inactivation by liver of absorbed melatonin on first-pass” value ([9]; oral) was no more than 99% and the “skin flux through living human skin” value [10] was 0.05-10 mg/cm^2 /hr.
